Patent US20080299109A1, “MECHANISM OF ASTRICYTE-NEURON SIGNALING” (Korea Institute of Science and Technology, priority 2007, published 2008)

Legend:
[1] = tested on: cultured wild-type mouse astrocytes; experiment: Fura-2 intracellular Ca2+ imaging in cultured wild-type astrocytes; assay type: cell-based; settings: 30 nM thrombin
Procedure: Cultured astrocytes were prepared from P0-P3 postnatal mice obtained from KIST SPF. The cerebral cortex was dissected free of adherent meninges, minced, and dissociated into single cell suspension by trituration through a Pasteur pipette. All procedures involving the use of animals were reviewed and approved by the Emory University IACUC. Dissociated cells were plated onto either 12 mm glass coverslips or 6 well plates coated with 0.1 mg/ml poly-D-lysine. Cells were grown in a DMEM media (Gibco, cat# 11960-044) supplemented with 25 mM glucose, 10% heat-inactivated horse serum, and 10% heat-inactivated fetal bovine serum, 2 mM glutamine, and 1000 units/ml penicillin-streptomycin. Cultures were maintained at 37° C. in a humidified 5% CO2-containing atmosphere. […] In some experiments, the culture media was replaced 24 hours after plating with DMEM with all added components except glutamine, and cultures were maintained for 4 days before experimentation in glutamine-free media.
Cultured astrocytes were incubated with 5 µM Fura2-AM in […] pluronic acid (Molecular Probes) for 30 min at room temperature, and subsequently transferred to a microscope stage for imaging. The external solution contained 150 mM NaCl, 10 mM HEPES, 3 mM KCl, 2 mM CaCl2, 2 mM MgCl2, and 5.5 mM glucose, and the pH was adjusted to pH 7.3 and osmolarity to 325 mOsm. Intensity images of a 510 nm wavelength were taken at 340 nm and 380 nm excitation wavelengths using either a Micromax Camera (Princeton) or an intensified video camera (PTI), and the two resulting images were used for ratio calculations using Axon Imaging Workbench version 2.2.1.

[2] = biological target: T1, NR1/NR2A receptors (Homo sapiens, UniProt Q05586+Q12879); experiment: Glutamate-induced currents in NR1/NR2A transfected HEK 293 cells, perforated patch; assay type: cell-based; settings: 30 nM thrombin 30 s, −60 mV and +60 mV
T1 construct: expressed in transfected cells; host or cells: HEK 293 cells
T1 sequence (Q12879 23-1464, other chains not shown): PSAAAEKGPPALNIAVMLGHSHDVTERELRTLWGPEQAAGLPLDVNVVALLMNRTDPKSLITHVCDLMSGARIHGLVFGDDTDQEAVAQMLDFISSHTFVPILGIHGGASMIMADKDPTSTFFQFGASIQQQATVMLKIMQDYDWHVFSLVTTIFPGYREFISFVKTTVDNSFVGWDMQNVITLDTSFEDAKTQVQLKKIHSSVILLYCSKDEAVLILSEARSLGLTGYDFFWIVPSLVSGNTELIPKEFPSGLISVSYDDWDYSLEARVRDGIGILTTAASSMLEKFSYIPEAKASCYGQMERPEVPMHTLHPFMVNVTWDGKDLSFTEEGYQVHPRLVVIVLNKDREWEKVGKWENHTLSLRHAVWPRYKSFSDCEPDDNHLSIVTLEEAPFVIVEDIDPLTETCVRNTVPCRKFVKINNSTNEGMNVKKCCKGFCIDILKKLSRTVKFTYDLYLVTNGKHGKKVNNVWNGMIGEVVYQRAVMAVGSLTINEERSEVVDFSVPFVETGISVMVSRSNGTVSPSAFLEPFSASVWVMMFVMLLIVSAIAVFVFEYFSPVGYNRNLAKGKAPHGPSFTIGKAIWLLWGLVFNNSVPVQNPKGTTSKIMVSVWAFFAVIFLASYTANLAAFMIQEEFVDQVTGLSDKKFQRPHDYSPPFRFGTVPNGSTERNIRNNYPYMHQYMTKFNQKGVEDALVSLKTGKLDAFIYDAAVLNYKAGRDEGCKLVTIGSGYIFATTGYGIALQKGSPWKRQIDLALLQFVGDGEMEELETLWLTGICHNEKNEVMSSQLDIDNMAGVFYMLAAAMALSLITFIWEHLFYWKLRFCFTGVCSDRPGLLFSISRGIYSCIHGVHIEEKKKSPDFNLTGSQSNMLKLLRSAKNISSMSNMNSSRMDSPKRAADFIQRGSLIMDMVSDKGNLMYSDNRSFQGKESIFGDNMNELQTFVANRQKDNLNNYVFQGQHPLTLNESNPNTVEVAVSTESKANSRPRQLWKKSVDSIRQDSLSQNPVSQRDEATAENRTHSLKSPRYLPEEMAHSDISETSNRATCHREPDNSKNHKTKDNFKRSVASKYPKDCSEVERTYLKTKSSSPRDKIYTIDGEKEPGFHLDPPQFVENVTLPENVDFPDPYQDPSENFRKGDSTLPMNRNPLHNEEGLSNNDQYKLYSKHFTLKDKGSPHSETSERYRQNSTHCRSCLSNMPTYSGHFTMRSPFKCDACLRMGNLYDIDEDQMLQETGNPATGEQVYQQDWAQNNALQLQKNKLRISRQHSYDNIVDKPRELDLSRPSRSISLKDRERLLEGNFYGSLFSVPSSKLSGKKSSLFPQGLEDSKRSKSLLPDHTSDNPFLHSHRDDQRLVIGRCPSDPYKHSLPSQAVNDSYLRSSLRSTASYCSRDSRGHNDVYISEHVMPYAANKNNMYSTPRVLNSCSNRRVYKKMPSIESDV
Procedure: Whole-cell perforated-patch recording from cultured cortical neurons or HEK cells under voltage clamp (holding potential −60 mV) was made with an Axopatch 200B amplifier (Axon Instruments, Union City, Calif.). The recording chamber was continually perfused with a recording solution comprised of 150 mM NaCl, 3 mM KCl, 2 mM CaCl2, 5.5 mM glucose, and 10 mM HEPES (pH 7.4 by NaOH; osmolality adjusted to 315-320 mOsm with sucrose). Recording electrodes (4-7 MΩ) were filled with (in mM) 150 mM CsMeSO4, 10 mM NaCl, 0.5 CaCl2, 10 mM HEPES, and 25-50 μg/ml gramicidin D (pH adjusted to 7.3 with CsOH and osmolality adjusted to 310 mOsm with sucrose). It took 20-30 min to achieve acceptable perforation with series resistance ranging from 30-60 MΩ. All electrophysiological data from cultured neurons cells in this study were collected at room temperature (23-26° C.).
The external solution included 0.2 mM MgCl2, 2 mM CaCl2, 100 nM ZnCl2, and 50 μM glycine. […] The response from the same cell is shown after a treatment of 30 nM thrombin for 30 s. […] The peak amplitudes of glutamate-induced currents were compared before and after thrombin treatment at −60 mV and +60 mV holding potentials.

[3] = tested on: CA1 pyramidal cells; experiment: Voltage clamp of CA1 pyramidal cells in hippocampal slices, low Mg2+; assay type: cell-based, rat; settings: −60 mV, thrombin 30 nM, TFLLR 30 μM, with and without APV
[4] = tested on: NMDA receptor-mediated component of the EPSP; experiment: Current clamp EPSP recording in CA1 pyramidal cells; assay type: cell-based, rat; settings: 30 μM TFLLR, 30 nM thrombin
Procedure: Young rats (Sprague-Dawley, age P15-P20) or mice (C57/B16, age P14-19) were deeply anesthetized with isoflurane and decapitated. The brain was rapidly removed and submerged in an ice-cold oxygenated artificial cerebrospinal fluid (ACSF) comprised of 130 mM NaCl, 24 mM NaHCO3, 3.5 mM KCl, 1.25 mM NaH2PO4, 1 mM CaCl2,3 mM MgCl2, and 10 mM glucose saturated with 95% O2/5% CO2, at pH 7.4.
The hemisected brain was glued onto the stage of a vibrating microtome (Leica VT1000 S) and sections of 300 μm thickness were cut and stored in an incubation chamber at room temperature for about 1 h before use. […]
Synaptic responses were evoked by applying 0.1 ms current injection (1-100 μA) to a bipolar stimulating electrode placed in the stratum radiatum. Thrombin (Calbiochem) concentration was determined as described by Gingrich et al. (2000) using conversion of 1 U/ml=10 nM. […]
A series of current clamp experiments were carried out to directly measure the effects of PAR1 activation on the NMDA receptor-mediated component of the EPSP recorded in the presence of 1.5 mM Mg^2+. […]

thrombin
change in Fura-2 ratio ([1]; without or after pretreatment with 1 μM BMS200261): 150.9±17.4%
level of astrocytic intracellular Ca^2+ (Fura-2 fluorescence ratio) ([1]; 30 μM TFLLR, 10 μM bradykinin, 50 μM 2-methyl-thio-ATP, 10 μM ATP): robust increase
glutamate-induced current profile before and after thrombin [2]: no change
amplitude of inward current ([3]; 0.5 μM TTX, 5 μM Mg^2+): 8.8±3.1 pA
membrane current variance ([3]; TTX, low Mg^2+): 12.4±1.1 pA^2
potentiation of synaptic NMDA component of EPSPs at 34° C. [4]: 120±6%
